Results as given in PubChem BioAssay AID248 (DTP/NCI, 2004).
Several values for one entry are separate records, joined by “and”; a condition that tells them apart may be missing. Identical values can stand only once. Inconclusive results and toxic doses are left out. No stated cut-off is given here; in the data, active means T/C of 150% or more; inactive means T/C below 125%.

System: L1210 leukemia ip in BDF1 mice, survival T/C
Test: NCI In Vivo Anticancer Drug Screen. Data for tumor model L1210 Leukemia (intraperitoneal) in B6D2F1 (BDF1) mice
Details: endpoint: mean survival time, higher = longer survival
Procedure, shortened: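 Each compound was tested against a transplantable tumor grown in mice. The endpoint was survival, with treated animals benchmarked against vehicle controls as a simple ratio.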

[1] = dose: 100.0 mg/kg/injection, schedule: Q01DX001 (ip), vehicle: saline
[2] = dose: 200.0 mg/kg/injection, schedule: Q01DX001 (ip), vehicle: saline
[3] = dose: 100.0 mg/kg/injection, schedule: Q01DX001 (ip), vehicle: carboxymethylcellulose (CMC)
[4] = dose: 200.0 mg/kg/injection, schedule: Q01DX001 (ip), vehicle: carboxymethylcellulose (CMC)
[5] = dose: 100.0 mg/kg/injection, schedule: Q01DX009 (ip), vehicle: Klucel (hydroxypropylcellulose) (HPC)
[6] = dose: 200.0 mg/kg/injection, schedule: Q01DX009 (ip), vehicle: Klucel (hydroxypropylcellulose) (HPC)
[7] = dose: 400.0 mg/kg/injection, schedule: Q01DX009 (ip), vehicle: Klucel (hydroxypropylcellulose) (HPC)
[8] = dose: 100.0 mg/kg/injection, schedule: Q01DX001 (ip), vehicle: Klucel (hydroxypropylcellulose) (HPC)
[9] = dose: 200.0 mg/kg/injection, schedule: Q01DX001 (ip), vehicle: Klucel (hydroxypropylcellulose) (HPC)
[10] = dose: 400.0 mg/kg/injection, schedule: Q01DX001 (ip), vehicle: Klucel (hydroxypropylcellulose) (HPC)
[11] = dose: 50.0 mg/kg/injection, schedule: Q01DX001 (ip), vehicle: carboxymethylcellulose (CMC)
[12] = dose: 100.0 mg/kg/injection, schedule: Q04DX002 (ip), vehicle: Klucel (hydroxypropylcellulose) (HPC)
[13] = dose: 200.0 mg/kg/injection, schedule: Q04DX002 (ip), vehicle: Klucel (hydroxypropylcellulose) (HPC)
[14] = dose: 100.0 mg/kg/injection, schedule: Q04DX003 (ip), vehicle: Klucel (hydroxypropylcellulose) (HPC)
[15] = dose: 200.0 mg/kg/injection, schedule: Q04DX003 (ip), vehicle: Klucel (hydroxypropylcellulose) (HPC)

Measured: T/C

S=P(NCc1ccccc1)(NCc1ccccc1)NCc1ccccc1
inactive: dose: 100.0 mg/kg/injection, schedule: Q04DX002 (ip), vehicle: gum acacia 97 % of control | dose: 200.0 mg/kg/injection, schedule: Q04DX002 (ip), vehicle: gum acacia 97 % of control | dose: 400.0 mg/kg/injection, schedule: Q04DX002 (ip), vehicle: gum acacia 94 % of control

CC(CN)OC12CC3CC(CC(C3)C1)C2 (stereo not given)
inactive: dose: 5.0 mg/kg/injection, schedule: Q04DX002 (ip), vehicle: saline 91 % of control | dose: 10.0 mg/kg/injection, schedule: Q01DX009 (ip), vehicle: saline 94 % of control | dose: 10.0 mg/kg/injection, schedule: Q04DX002 (ip), vehicle: saline 102 % of control | dose: 20.0 mg/kg/injection, schedule: Q01DX009 (ip), vehicle: saline 101 % of control | dose: 20.0 mg/kg/injection, schedule: Q04DX002 (ip), vehicle: saline 94 % of control | dose: 40.0 mg/kg/injection, schedule: Q01DX009 (ip), vehicle: saline 101 % of control | dose: 40.0 mg/kg/injection, schedule: Q04DX002 (ip), vehicle: saline 95 % of control and 91 % of control

CC(C)C(=O)OCC(=O)c1ccc(-c2ccccc2)cc1
inactive: [1] 100 % of control | [2] 94 % of control | dose: 400.0 mg/kg/injection, schedule: Q01DX001 (ip), vehicle: saline 111 % of control

CNC(=O)Oc1cccc(C(F)(F)F)c1
inactive: [3] 90 % of control | [4] 98 % of control | dose: 400.0 mg/kg/injection, schedule: Q01DX001 (ip), vehicle: carboxymethylcellulose (CMC) 92 % of control

COc1ccc(-c2c(CO)cc(OC)c(OC)c2OC)c(CO)c1
inactive: dose: 75.0 mg/kg/injection, schedule: Q01DX001 (ip), vehicle: saline 99 % of control | dose: 150.0 mg/kg/injection, schedule: Q01DX001 (ip), vehicle: saline 99 % of control | dose: 300.0 mg/kg/injection, schedule: Q01DX001 (ip), vehicle: saline 92 % of control

CC(=O)O[C@]1(C(C)=O)CC[C@H]2[C@@H]3C[C@H](F)C4=CC(=O)CC[C@]4(C)[C@H]3CC[C@@]21C
inactive: [5] 98 % of control | dose: 100.0 mg/kg/injection, schedule: Q04DX003 (ip), vehicle: other 93 % of control | [6] 97 % of control | dose: 200.0 mg/kg/injection, schedule: Q04DX003 (ip), vehicle: other 98 % of control | [7] 101 % of control | dose: 400.0 mg/kg/injection, schedule: Q04DX003 (ip), vehicle: other 100 % of control

CN(C)CC1(C)CCc2c(ccc3ccccc23)C1O (stereo not given)
inactive: [8] 94 % of control

Oc1ccc(O)c2c1C1c3ccccc3C2c2ccccc21
inactive: [1] 86 % of control | [2] 108 % of control

O=C1OCC/C1=C\C1CC=CCC1 (stereo not given)
inactive: dose: 67.0 mg/kg/injection, schedule: Q04DX003 (ip), vehicle: saline with Tween-80 96 % of control | dose: 100.0 mg/kg/injection, schedule: Q04DX003 (ip), vehicle: saline with Tween-80 88 % of control | dose: 150.0 mg/kg/injection, schedule: Q04DX003 (ip), vehicle: saline with Tween-80 96 % of control

Cc1ccc(S(=O)(=O)C(Cl)(Cl)Cl)cc1
inactive: [8] 96 % of control | [5] 97 % of control | [9] 96 % of control | [6] 104 % of control | [10] 102 % of control | [7] 104 % of control

COc1ccc(CN(C)C)c(C(O)c2ccccc2)c1 (stereo not given)
inactive: [11] 101 % of control | [3] 103 % of control | [4] 103 % of control

Cc1ccc(CCC(=O)O)c2ccccc12
inactive: [12] 93 % of control | [13] 87 % of control

C=CS(=O)CCCCCCCC (stereo not given)
inactive: [12] 102 % of control | [13] 102 % of control

C=CCc1cccc(OC)c1OCCN(CC)CC
inactive: dose: 6.25 mg/kg/injection, schedule: Q01DX009 (ip), vehicle: saline 111 % of control | dose: 12.5 mg/kg/injection, schedule: Q01DX009 (ip), vehicle: saline 102 % of control | dose: 25.0 mg/kg/injection, schedule: Q01DX009 (ip), vehicle: saline 100 % of control

O=C(C#CC(=O)c1ccccc1)c1ccccc1
inactive: dose: 20.0 mg/kg/injection, schedule: Q04DX003 (ip), vehicle: gum acacia 95 % of control | dose: 40.0 mg/kg/injection, schedule: Q04DX003 (ip), vehicle: gum acacia 101 % of control | dose: 80.0 mg/kg/injection, schedule: Q04DX003 (ip), vehicle: gum acacia 100 % of control

Cc1sc([N+](=O)[O-])cc1[N+](=O)[O-]
inactive: dose: 50.0 mg/kg/injection, schedule: Q01DX009 (ip), vehicle: Klucel (hydroxypropylcellulose) (HPC) 103 % of control | [5] 92 % of control | [14] 97 % of control | [15] 96 % of control

Cc1[nH]c2ccccc2c1C(c1ccccc1O)c1c(C)[nH]c2ccccc12
inactive: [5] 97 % of control | [6] 103 % of control | [7] 101 % of control

C/C=C/C[P+](Cc1cccc(C)c1)(c1ccccc1)c1ccccc1
inactive: dose: 3.13 mg/kg/injection, schedule: Q01DX009 (ip), vehicle: saline with Tween-80 107 % of control | dose: 6.25 mg/kg/injection, schedule: Q01DX009 (ip), vehicle: saline with Tween-80 113 % of control | dose: 12.5 mg/kg/injection, schedule: Q01DX009 (ip), vehicle: saline with Tween-80 98 % of control

COC(=O)c1ccc(/C=C/c2ccc(S(=O)(=O)F)cc2)cc1
inactive: [8] 91 % of control | [9] 91 % of control | [10] 97 % of control

O=C(CCCC(=O)N/N=C/c1cccc(Br)c1)N/N=C\c1cccc(Br)c1
inactive: [11] 90 % of control | [3] 88 % of control

N#CSCCOCCSC#N
inactive: dose: 5.0 mg/kg/injection, schedule: Q01DX001 (ip), vehicle: saline 108 % of control | dose: 10.0 mg/kg/injection, schedule: Q01DX001 (ip), vehicle: saline 96 % of control

CCCCC(CC)CNCCOC(=O)c1ccc(N)cc1 (stereo not given)
inactive: dose: 75.0 mg/kg/injection, schedule: Q01DX001 (ip), vehicle: other 92 % of control | dose: 150.0 mg/kg/injection, schedule: Q01DX001 (ip), vehicle: other 100 % of control

COc1cc(/C=N/N=C/c2cc(OC)cc(OC)c2)cc(OC)c1
inactive: [12] 98 % of control | [13] 100 % of control | dose: 400.0 mg/kg/injection, schedule: Q04DX002 (ip), vehicle: Klucel (hydroxypropylcellulose) (HPC) 107 % of control

CCOC(=O)/C(O)=C\c1cc(Cl)nnc1Cl
inactive: dose: 162.5 mg/kg/injection, schedule: Q04DX002 (ip), vehicle: Klucel (hydroxypropylcellulose) (HPC) 100 % of control | dose: 325.0 mg/kg/injection, schedule: Q04DX002 (ip), vehicle: Klucel (hydroxypropylcellulose) (HPC) 95 % of control

CN(C)c1ccc(C(=S)c2ccc(N(C)C)nc2)cn1
inactive: [5] 102 % of control | [14] 98 % of control | [6] 88 % of control | [15] 106 % of control | [7] 98 % of control | dose: 400.0 mg/kg/injection, schedule: Q04DX003 (ip), vehicle: Klucel (hydroxypropylcellulose) (HPC) 104 % of control
